In brackets after ≈: the same amount, converted by molar mass. Several values for one entry are separate records, joined by “and”; a condition that tells them apart may be missing. Equal entries are not always repeated. Numbered stars: 1 amine (or outer) side, 2 acyl side, 3 side chain; on linkers, the order of the positions; unused ones are H or OH. Bridge positions count the residues as written; N and C are the ends. Square brackets hold non-standard residues; d marks the D form. Peptide text beside a SMILES is read from it. I, II: the chains in the order shown. Actinocin(9to1) = Cc1c2oc3c(C)ccc(C(=O)[*:1])c3nc-2c(C(=O)[*:2])c(N)c1=O; NMeV = CN[C@H](C(=O)O)C(C)C; Sar = CNCC(=O)O
What was measured:
DPPH antioxidant assay = type: biochemical; details: for Antioxidant IC50 / IC50: DPPH; for Antioxidant IC50: 550 nm; for IC50: value in brackets; for Antioxidant Mg Vit C equivalents/g dry weight: IC50 vit C/IC50 sample × 1000
Experimental: Antioxidant activity of the ethanol extract of S. jambos and compounds was investigated using 1,2-diphenyl-1-picrylhydrazyl (DPPH) antioxidant assay. Following the procedures as described by DuToit et al. for each sample, a dilution series (8 dilutions) was prepared in a 96 well plate by adding distilled water as a dilution medium. Final concentration of the samples ranged from 100 to 0.7 μg/ml. Each concentration was tested in triplicate. Vitamin C was used as a positive control. […] The radical scavenging activity was measured in terms of the amount of antioxidants necessary to decrease the initial DPPH absorbance by 50% (IC50). The IC50 value of each sample was determined graphically by plotting the absorbance of DPPH as a function of the sample concentration in μg/ml. The IC50 is the amount of antioxidant necessary to decrease the initial DPPH absorbance by 50%. The results are expressed as the mg vitamin C equivalents/g dry weight and calculated as follows: […]

[1] = system: Propionibacterium acnes (ATCC 11827); assay: Antibacterial activity, broth microdilution MIC (INT colour change); type: cell-based; details: P. acnes, 72 h anaerobic, 37°C; for MIC: Cutibacterium acnes, ATCC11827, 72 h
Experimental: The ethanol extract and compounds were tested against P. acnes by determining the minimum inhibitory concentration (MIC) values obtained by a microdilution method as previously described with few modifications. Briefly, the bacteria was cultured from a Kwik-Stick on nutrient agar and incubated at 37°C for 72 h under anaerobic conditions before the assay. The 72 h culture of the bacteria was dissolved in nutrient broth and the suspension was adjusted to 0.5 McFarland standard turbidity. […] In a sterile 96-well plate, 100 μl of samples from the stock solution consisting of the plant extract/isolated compounds (2 mg/ml in 10% dimethyl sulphoxide (DMSO)) and the positive control tetracycline (0.2 mg/ml) were diluted with broth. Twofold serial dilutions were made in broth over a range to give concentrations of 500–3.9 μg/ml and 50–0.3 and μg/ml for the plant extract/ isolated compounds and positive control tetracycline, respectively. The bacterial suspension (100 μl) was then added to the wells. The wells with 2.5% DMSO and bacterial suspension without samples served as the solvent and negative controls, respectively. The plates were incubated at 37°C for 72 h in an anaerobic environment.

[2] = system: vancomycin-resistant enterococci; design: method as in PMID 17541170; details: cited from earlier work
IL 8 = IL 8 release from U937 cells stimulated with heat-killed P. acnes (ELISA); type: cell-based, human; details: for Suppression of IL 8 release (range stated jointly for IL 8 and TNF α): abstract summary; for Inhibition of IL 8 in words: at the highest concentration tested; for Inhibitory ratio (%) IL 8: 18 h
Experimental: (§1) Briefly, the log phase culture of P. acnes was harvested, washed three times with phosphate buffer saline (PBS), and incubated at 80°C for 30 min to kill the bacteria. The heat-killed bacteria were stored at 4°C until use. […] Pentoxifylline was used as a control. […] Cytokine standards were serially diluted to facilitate the construction of calibration curves necessary for determining protein concentration after treatment with test samples. The ratio (%) of inhibition of the cytokine release was calculated using the following equation: […] Where T represents the concentration of the cytokine in the culture supernatant with the test sample, and C represents the concentration of cytokine in the culture supernatant with the solvent.

TNF α = TNF α release from U937 cells stimulated with heat-killed P. acnes (ELISA); type: cell-based, human; details: for Suppression of TNF α release (range stated jointly for IL 8 and TNF α): abstract summary; for Inhibition of TNF α in words: at the highest concentration tested; for Inhibitory ratio (%) TNF α: 18 h
Experimental: as §1

[3] = In vitro cytotoxicity assay (XTT), U937; details: human
Experimental: (§2) The mouse melanocytes (B16-F10) cells were cultured in a complete Minimum Essential Eagle’s Medium (MEM) whereas the human U937 cells were cultured in Roswell Park Memorial Institute (RPMI) containing 10% fetal bovine serum (FBS) and 1% gentamycin. B16-F10 (10^5 cells per well) and U937 (10^6 cells per well) were seeded into a 96-well plate. After an overnight incubation at 37°C in 5% CO2 and a humidified atmosphere, the extract, compounds and the positive control (actinomycin D) were added to the cells. […] The highest concentration of positive control (0.05 μg/ml) was serially diluted to eight consecutive wells. The plate was then incubated at 37°C in 5% CO2, and a humidified atmosphere after which the toxic effects of the extracts were assayed using the XTT (sodium 3’-[1-(phenyl amino-carbonyl)-3,4-tetrazolium]-bis-[4-methoxy-6-nitrobenzene sulfonic acid hydrate) cytotoxicity assay. […] The optical densities of the wells were measured at 450 nm (690 nm reference wavelength) using BIOTEK Power-wave XS multi well reader (A.D.P., Weltevreden Park, South Africa). By referring to the control (medium with DMSO), the cell survival rate was assessed.

U937 human macrophage = assay: In vitro cytotoxicity assay (XTT), U937; details: U937 cells
Experimental: as §2

[4] = isolated from Anacardium occidentale; cited from earlier work
P. acnes = system: P. acnes; design: method as in doi:10.1021/jf00030a036; details: cited from earlier work
[5] = In vitro cytotoxicity assay (XTT), B16-F10; details: mouse
Experimental: as §2

[6] = system: B16-F10 mouse melanocytes; assay: In vitro cytotoxicity assay (XTT), B16-F10; details: B16-F10 cells
Experimental: as §2

O=C1O[C@H]([C@@H](O)CO)C(O)=C1O [vitamin C, reference compound]
Antioxidant IC50 (DPPH antioxidant assay): 1.9 µg/mL
IC50 (DPPH antioxidant assay): 11.3 µM

C[C@H]1[C@H](C)CC[C@]2(C(=O)O)CC[C@]3(C)C(=CC[C@@H]4[C@@]5(C)CC[C@H](O)C(C)(C)[C@@H]5CC[C@]43C)[C@H]12 [Ursolic acid, ursolic acid]
MIC [1]: > 500 µg/mL
Antibacterial MIC [1]: Na (not active at the highest concentration tested (500 μg/ml))
MIC [2]: 4 µg/mL (≈ 8.76 µM)
Suppression of IL 8 release (range stated jointly for IL 8 and TNF α) (IL 8): 74 - 99%
Inhibition of IL 8 in words (IL 8): significant inhibition
Suppression of TNF α release (range stated jointly for IL 8 and TNF α) (TNF α): 74 - 99%
Inhibition of TNF α in words (TNF α): significant inhibition
EC50 ([3]; U937 human macrophage cells): 38 µg/mL and 83.2 µM
Toxicity in words (U937 human macrophage): moderately toxic

myricitrin
Antibacterial MIC [1]: Na (not active at the highest concentration tested (500 μg/ml))
Antibacterial MIC ([1]; listed as myricitrin): > 500 µg/mL
Suppression of IL 8 release (range stated jointly for IL 8 and TNF α) (IL 8): 74 - 99%
Inhibition of IL 8 in words (IL 8): significant inhibition
Inhibitory ratio (%) IL 8 (IL 8; final concentration 10 μg/ml): 40.6%
Inhibitory ratio (%) IL 8 (IL 8; final concentration 50 μg/ml): 94.3%
Inhibitory ratio (%) IL 8 (IL 8; final concentration 100 μg/ml): 99.6%
Suppression of TNF α release (range stated jointly for IL 8 and TNF α) (TNF α): 74 - 99%
Inhibition of TNF α in words (TNF α): significant inhibition
Inhibitory ratio (%) TNF α (TNF α; final concentration 10 μg/ml): 32.8%
Inhibitory ratio (%) TNF α (TNF α; final concentration 50 μg/ml): 99.7%
Inhibitory ratio (%) TNF α (TNF α; final concentration 100 μg/ml): 99.7%
Antioxidant IC50 (DPPH antioxidant assay): 1.8 µg/mL
IC50 (DPPH antioxidant assay): 4 µM
Antioxidant Mg Vit C equivalents/g dry weight (DPPH antioxidant assay): 1081.0 Mg Vit C equivalents/g dry weight

6-pentadecenylsalicylic acid
DPPH radical scavenging activity in words [4]: did not exhibit notable DPPH radical scavenging activity

pentadecenyl salicylic acid
MIC (P. acnes): 0.78 µg/mL

O=c1c(O)c(-c2cc(O)c(O)c(O)c2)oc2cc(O)cc(O)c12 [Myricetin, myricetin]
MIC [1]: > 500 µg/mL
Antibacterial MIC [1]: Na (not active at the highest concentration tested (500 μg/ml))
EC50 ([5]; B16-F10 mouse melanocyte cells): 11.1 µg/mL and 35.1 µM
Toxicity in words [6]: significant toxicity
Inhibition of IL 8 in words (IL 8): low inhibition
Inhibitory ratio (%) IL 8 (IL 8; final concentration 3.1 μg/ml): -0.5%
Inhibitory ratio (%) IL 8 (IL 8; final concentration 6.2 μg/ml): 10%
Inhibitory ratio (%) IL 8 (IL 8; final concentration 12.5 μg/ml): 34%
Inhibition of TNF α in words (TNF α): moderately decreased
Inhibitory ratio (%) TNF α (TNF α; final concentration 3.1 μg/ml): -4.8%
Inhibitory ratio (%) TNF α (TNF α; final concentration 6.2 μg/ml): 27.1%
Inhibitory ratio (%) TNF α (TNF α; final concentration 12.5 μg/ml): 44.1%
EC50 ([3]; U937 human macrophage cells): 19.3 µg/mL and 60 µM
Toxicity in words (U937 human macrophage): moderate toxicity
Antioxidant IC50 (DPPH antioxidant assay): 0.9 µg/mL
IC50 (DPPH antioxidant assay): 3 µM
Antioxidant Mg Vit C equivalents/g dry weight (DPPH antioxidant assay): 2105.0 Mg Vit C equivalents/g dry weight

Cc1c2oc3c(C)ccc(C(=O)N[C@@H]4C(=O)N[C@H](C(C)C)C(=O)N5CCC[C@H]5C(=O)N(C)CC(=O)N(C)[C@@H](C(C)C)C(=O)O[C@@H]4C)c3nc-2c(C(=O)N[C@@H]2C(=O)N[C@H](C(C)C)C(=O)N3CCC[C@H]3C(=O)N(C)CC(=O)N(C)[C@@H](C(C)C)C(=O)O[C@@H]2C)c(N)c1=O [actinomycin D, reference compound] (I: T[dV]P[Sar][NMeV] / II: T[dV]P[Sar][NMeV]; ester I:1-I:C, II:1-II:C; linker I:N-II:N via Actinocin(9to1))
EC50 [5]: 0.0045 µg/mL (≈ 0.00358 µM)
EC50 [3]: 0.0045 µg/mL (≈ 0.00358 µM)
